Measurements taken from patent US20250025440A1, “COMPOSITIONS AND METHODS FOR MANAGEMENT OF HUMAN PAPILLOMA VIRUS-ASSOCIATED CANCERS” (LOMA LINDA UNIVERSITY, priority 2021, published 2025).

Tests used:
Type in all cases: cell-based
[1] = system: SCC90 and SCC104 (HPV+) cells; test: Western blotting of p53 and apoptosis mediators; settings: 0.5 μM and 1 μM, 24 hours
Experimental: (§1) Based on the cell viability studies described above, as well as AlphaScreen™ data showing that that GA-OH prevents E6 from binding to both caspase 8 and the p53-recruiter, E6AP, activation of p53 and associated apoptotic effects could be contributing to the decrease in cell viability. Levels of p53 and its target gene product, p21, were evaluated using immunoblotting. […] FIG. 8A is a photographic image of blots analyzing Caspase 8 expression and activation of downstream targets. SCC19, SCC90 and SCC104 were seeded and treated with vehicle, 0.5 μM and 1 μM Of GA-OH for 24 hours. Activation of p53 was tested by blotting for p53 expression and activation. Caspase 8 activation and apoptosis was tested by blotting for Caspase 8 expression and activation of downstream targets. These observations were corroborated by an induction of the levels of the target of p53, p21. […] The basal levels of p53 in the HPV^+ cell lines are lower compared to the HPV^− cell line.
(§2) The effect of GA-OH treatment on activation of another target of E6, caspase 8, and its downstream targets in the apoptosis cascade was evaluated. […] There is a noticeable increase in caspase 8 levels in the HPV^− cell line upon exposure to GA-OH. […] Quantification of relative expression of each of the targets above using B-actin as a loading control. FIGS. 9A-9E are graphical representations of the relative expression of cleaved PARP, p53, p21, cleaved caspase 3, and cleaved caspase 8, respectively in SCC19, SCC90 and SCC104 cell lines when treated with vehicle, or 0.5 μM, or 1 μM of GA-OH, each of the targets above using B-actin as a loading control is shown.
(§3) Adherent cells were washed with ice cold PBS. Cell lysis buffer containing protease inhibitor cocktail was added and cells were scraped off into a tube on ice. The cells were incubated on ice for 10 minutes. Cell lysates were separated by SDS-PAGE and electrophoretically transferred to PVDF membranes. Following blocking, antibodies directed against caspase 8, p53, cleaved PARP, cleaved caspase 3, p21, and β-actin (Cell signaling) were applied at 1:5000 dilution. Anti-mouse and anti-rabbit secondary antibodies were then employed (LI-COR Biosciences, Lincoln, NE, USA). Signals were measured using the Odyssey Infrared Imaging system (LI-COR Biosciences) and quantified using Image J.

SCC19 (HPV-) cells = test: Western blotting of p53 and apoptosis mediators; settings: HPV- cell line, 0.5 μM and 1 μM, 24 hours
Experimental: as §1, §2, §3

SCC104 (HPV+) = test: Colony formation assay; settings: SCC104, treated 24 hours
Experimental: (§4) For assessing the long-term effects on the survival of cells following GA-OH treatment, the colony formation assay (CFA) was performed. Two cell lines, SCC19 (HPV^−) and SCC104 (HPV^+) were used for this study. The cells were treated for 24 hours with GA-OH, and then seeded for assessment of colony formation. Cell survival data from this study mirrored the impact of GA-OH on cell viability of HPV^+ and HPV^− cell lines. […] FIG. 7C is a graphical representation of the effects of GA-OH on the clonogenicity of the surviving fractions of HPV^+ versus HPV^− cell lines.
(§5) Sub-confluent monolayer cells were treated with different doses of GA-OH for 24 hours. Cells were trypsinized and re-suspended before re-plating into 6 well plates in DMEM or MEM at 500-1000 cell densities, depending on the cell line. Cells were then allowed to grow for 10-20 days, depending on the cell line, before fixing and staining. A mixture of methanol/acetic acid was used for fixing, followed by 0.5% crystal violet staining. Plates were imaged using UV imager, and colonies with more than […] counted using image J. Surviving fractions were determined by dividing the number of colonies by the number of cells seeded as a product of the corresponding plating efficiency. Survival fractions curves were plotted using GraphPad Prism.

SCC19 (HPV-) = test: Colony formation assay; settings: SCC19, treated 24 hours
Experimental: as §4, §5

[2] = system: HPV- cell lines (SCC19, SCC84); test: Caspase 3/7 activity Glo assay; settings: 0.75 μM, 24 hours
Experimental: (§6) These findings were then confirmed by conducting a Caspase 3/7 activity Glo assay, which is a surrogate for apoptotic induction. Three HPV^+ cell lines (SCC090, SCC104, SiHa) and two HPV^− cell lines (SCC19, SCC84) were assessed for activity of caspases 3 and 7, and thus for apoptosis activity. […] FIG. 8B is a graphical representation of the Caspase 3/7 activity of gambogic acid in various HPV+ and HPV− cell lines. These cell lines were seeded in 96 well plates and treated with 0.75 uM GA-OH. Caspase 3/7 activity was measured after 24 hours. HPV^+ cell lines show high levels of Caspase 3/7 activity. […] FIG. 10 is a graphical representation of the cell viability as measured by MTT, when three HPV^+ cell lines (SCC090, SCC104, SiHa) and two HPV^− cell lines (SCC19, SCC84) were treated with gambogic acid.
(§7) Cells were seeded into white walled 96-well plates at 2×10^4 cells per well in 100 μL media and incubated overnight. GA-OH (0.75 μM) and vehicle were then added and incubated at 37° C. for 24 hr. Caspase 3/7 activity was measured using the Caspase 3/7 Glo kit (Promega, Fitchburg, WI, USA) following the manufacturer's instructions. Briefly, room temperature-equilibrated Caspase-Glo reagent was added (Promega) to each well. […] After a 2-hr incubation, luminescence was measured using a plate-reading fluorimeter (Flx800, Bio-Tek Instrument Co., Winooski, VT, USA). […]

[3] = system: HPV+ cell lines (SCC090, SCC104, SiHa); test: Caspase 3/7 activity Glo assay; settings: 0.75 μM, 24 hours
Experimental: as §6, §7

Substance: 30-hydroxygambogic acid [GA-OH]
- PARP cleavage [1]: cleavage is modest
- caspase 3 cleavage [1]: cleaved dose-dependently
- caspase 8 cleavage [1]: cleavage of caspase 8 in a dose-dependent manner
- p53 level [1]: increase of p53
- p21 level ([1]; vs vehicle): robust induction of p21 levels
- caspase 8 cleavage (SCC19 (HPV-) cells): no visible cleavage of caspase 8
- number of colonies (SCC104 (HPV+)): significantly and dose-dependently reduced
- number of colonies (SCC19 (HPV-)): did not exhibit significant reduction relative to their control except at high concentrations
- Caspase 3/7 activity (apoptosis induction) [2]: little to no apoptosis activity
- Caspase 3/7 activity (apoptosis induction) [3]: Significant apoptosis induction
